Source: article PMC4199632, “Exploring the Anti-Cancer Activity of Novel Thiosemicarbazones Generated through the Combination of Retro-Fragments: Dissection of Critical Structure-Activity Relationships” (PLoS ONE, 2014)

Experiments:
[1] = system: HCT116 p53+/+ colon cancer cells; assay: Proliferation assay (MTS, 96 h); format: cell-based, human; details: for IC50: Homo sapiens, HCT-116, 96 h incubation, MTS, mean ±SD (3 experiments); for Therapeutic index NHDF vs. HCT116 p53+/+: NHDF cell IC50 divided by HCT116 p53+/+ IC50
Method in brief: (§1)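 HCT116 p53+/+, HCT116 p53−/− and NHDF cells were seeded 24 h before a 96 h compound exposure at 37 °C, with final DMSO <0.05%. Viability was read by MTS absorbance at 490 nm after 1 h; IC50 was the concentration reducing absorbance to 50% of untreated control.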

[2] = system: HCT116 p53−/− colon cancer cells; assay: Proliferation assay (MTS, 96 h); format: cell-based, human; details: for IC50: Homo sapiens, HCT-116, 96 h, 96 h incubation, MTS, mean ±SD (3 experiments); for Therapeutic index NHDF vs. HCT116 p53−/−: NHDF cell IC50 divided by HCT116 p53−/− IC50
Method in brief: as §1

[3] = system: Raji Burkitt's lymphoma cells; assay: Proliferation assay (MTT, 72 h); format: cell-based; details: Homo sapiens, 72 h incubation, mean ±SD (3 experiments)
Method in brief: (§2)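 Cells seeded 24 h before treatment, then exposed at 37 °C for 72 h (SK-N-MC, Raji, HeLa) or 96 h (HCT116, NHDF); final DMSO <0.05%. Read-outs: MTT at 570 nm (SK-N-MC, Raji), crystal violet at 595 nm (HeLa), MTS at 490 nm (HCT116, NHDF); IC50 is 50% absorbance versus untreated control, triplicates repeated three times.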

[4] = system: SK-N-MC neuroepithelioma cells; assay: Proliferation assay (MTT, 72 h); format: cell-based; details: Homo sapiens, 72 h incubation, mean ±SD (3 experiments)
Method in brief: as §2

[5] = system: HeLa cervical carcinoma cells; assay: Proliferation assay (crystal violet, 72 h); format: cell-based; details: Homo sapiens, 72 h incubation, mean ±SD (3 experiments)
Method in brief: as §2

[6] = Ascorbate oxidation assay (iron complexes); format: biochemical; details: iron complex; for Ascorbate oxidation (% of the control): FeIII 10 µM, ascorbate 100 µM
Protocol: The ability of the iron complexes of the novel ligands to mediate the oxidation of the physiological substrate, ascorbate, was examined using established methods, [18], [22], [52], [53]. Ascorbic acid (100 µM) was prepared immediately prior to each experiment and was incubated in the presence of Fe^III (10 µM; as FeCl3), the chelator (1–60 µM) and a 50-fold molar excess of citrate (500 µM). The absorbance at 265 nm was measured after 10 and 40 min and the difference in absorbance at these time points was calculated. The results of these experiments were expressed as iron-binding equivalents (IBE) due to the different denticity of the chelators examined. The chelators, Dp44mT, DFO and ethylenediaminetetraacetic acid (EDTA) were used as controls as the ability of their iron complexes to oxidize ascorbate has been extensively characterized, [15], [52], [53].
The ability of the iron complexes of the novel TSCs to catalyze the oxidation of the physiological substrate, ascorbate, was important to assess as redox cycling may play a critical role in their anti-proliferative activity, [15], [18], [52], [53]. Thus, the oxidation of ascorbate mediated by the iron complexes of series 1–6 were examined in comparison to the iron complexes of the control compounds, DFO, EDTA and Dp44mT, as the ability of the latter to oxidize ascorbate is well characterized, [15], [52], [53], [68]. The results were expressed as a percentage of the control (no chelator) at iron-binding equivalents (IBEs) of 0.1 (excess “free” iron), 1 (iron-chelator complexes with a fully filled coordination sphere), or 3 (excess free chelator), due to the different denticity of the chelators examined (Fig. 10).
Figure 10 Effect of the iron complexes of (A) series 1, (B) series 2, (C) series 3, (D) series 4, (E) series 5 and (F) series 6 chelators, relative to DFO, Dp44mT and EDTA, on ascorbate oxidation. Chelators at iron-binding equivalent (IBE) ratios of 0.1, 1, and 3 were incubated in the presence of Fe^III (10 µM) and ascorbate (100 µM). The UV-Vis absorbance at 265 nm was recorded after 10 and 40 min, and the difference between the time points was calculated. Results are mean ±SD (3 experiments).

S=C(NN=C(c1ccccn1)c1ccccn1)N1CCN(c2cnccn2)CC1 [1e]
IC50 [1]: 38 ± 3 nM
IC50 [2]: 31 ± 3 nM
IC50 [3]: 40 ± 20 nM
IC50 [4]: 70 ± 50 nM
IC50 [5]: 720 ± 70 nM
Ascorbate oxidation (% of the control) ([6]; IBE 3): 200–265%

CCN1CCN(C(=S)N/N=C/c2ccc3ccccc3n2)CC1 [2a]
IC50 [1]: 1440 ± 690 nM
IC50 [2]: 3550 ± 1230 nM
IC50 [3]: 60 ± 20 nM
IC50 [4]: 2540 ± 860 nM
IC50 [5]: 430 ± 160 nM
Ascorbate oxidation (% of the control) ([6]; IBE 3): 200–265%

S=C(N/N=C/c1ccc2ccccc2n1)N1CCN(c2ccccc2)CC1 [2b]
IC50 [1]: 42 ± 3 nM
Therapeutic index NHDF vs. HCT116 p53+/+ [1]: 0.8
IC50 [2]: 90 ± 40 nM
Therapeutic index NHDF vs. HCT116 p53−/− [2]: 0.4
IC50 [3]: 40 ± 10 nM
IC50 [4]: 330 ± 20 nM
IC50 [5]: 200 ± 70 nM

CN(C(=S)N/N=C/c1ccc2ccccc2n1)C1CCCCC1 [2f]
IC50 [1]: 26 ± 1 nM
Therapeutic index NHDF vs. HCT116 p53+/+ [1]: 0.6
IC50 [2]: 35 ± 3 nM
Therapeutic index NHDF vs. HCT116 p53−/− [2]: 0.4
IC50 [3]: 810 ± 100 nM
IC50 [4]: 820 ± 190 nM
IC50 [5]: 940 ± 450 nM

CN(C(=S)N/N=C/c1cnc2ccccc2n1)C1CCCCC1 [5f]
IC50 [1]: 1240 ± 450 nM
IC50 [2]: 1020 ± 540 nM
IC50 [3]: 720 ± 290 nM
IC50 [4]: 2040 ± 340 nM
IC50 [5]: 4090 ± 2070 nM
Ascorbate oxidation compared with controls ([6]; IBE 3): decreased ascorbate oxidation relative to the control

CN(C(=S)N/N=C/c1ccccc1O)C1CCCCC1 [6f]
IC50 [1]: > 25000 nM
IC50 [2]: > 25000 nM
IC50 [3]: 690 ± 510 nM
IC50 [4]: > 6250 nM
IC50 [5]: 10100 ± 3600 nM
Ascorbate oxidation compared with controls ([6]; IBE 3): decreased ascorbate oxidation relative to the control

CC(=O)N(O)CCCCCNC(=O)CCC(=O)N(O)CCCCCNC(=O)CCC(=O)N(O)CCCCCN [DFO, desferrioxamine, reference compound]
IC50 [1]: > 25000 nM
IC50 [2]: > 25000 nM
IC50 [3]: 4740 ± 1800 nM
IC50 [4]: 15100 ± 5200 nM
IC50 [5]: 14300 ± 960 nM
Ascorbate oxidation (% of the control) ([6]; IBE 1): 47%
Ascorbate oxidation (% of the control) ([6]; IBE 3): 23%

CN(C)C(=S)NN=C(c1ccccn1)c1ccccn1 [Dp44mT, di-2-pyridylketone 4,4-dimethyl-3-thiosemicarbazone, reference compound]
IC50 [1]: 2 ± 1 nM
Therapeutic index NHDF vs. HCT116 p53+/+ [1]: 7690
IC50 [2]: 5 ± 2 nM
Therapeutic index NHDF vs. HCT116 p53−/− [2]: 3076
IC50 [3]: 7 ± 1 nM
IC50 [4]: 12 ± 1 nM
IC50 [5]: 40 ± 10 nM
Ascorbate oxidation (% of the control) ([6]; IBE 0.1): 129%
Ascorbate oxidation (% of the control) ([6]; IBE 1): 203%
Ascorbate oxidation (% of the control) ([6]; IBE 3): 196%
